Key:
H2-receptor [1] = target: T1, H2-receptor (Homo sapiens, UniProt P25021); details: cited from earlier work
H2-receptor [2] = target: T1, H2-receptor; details: cited from earlier work; remark: listed apart in the source
[3] = Effect of rate and duration of histamine administration on side effects and efficacy; details: administered over longer than about 30 minutes
[4] = test system: herpes simplex virus (HSV) type 2; details: animals inoculated intravenously with HSV; cited from earlier work
[5] = prior reports; cited from earlier work
[6] = Description: Peripheral blood venous samples were drawn in 10 ml heparinized test tubes before the onset of treatment and weekly thereafter. […] The manufacturer's instructions provided with the kit, dated June, 1989, were followed. Blood histamine levels were measured at the indicated times.
[7] = test system: Acute Myelogenous Leukernia; details: IL-2 as the single agent; cited from earlier work

T1 sequence (P25021 whole entry): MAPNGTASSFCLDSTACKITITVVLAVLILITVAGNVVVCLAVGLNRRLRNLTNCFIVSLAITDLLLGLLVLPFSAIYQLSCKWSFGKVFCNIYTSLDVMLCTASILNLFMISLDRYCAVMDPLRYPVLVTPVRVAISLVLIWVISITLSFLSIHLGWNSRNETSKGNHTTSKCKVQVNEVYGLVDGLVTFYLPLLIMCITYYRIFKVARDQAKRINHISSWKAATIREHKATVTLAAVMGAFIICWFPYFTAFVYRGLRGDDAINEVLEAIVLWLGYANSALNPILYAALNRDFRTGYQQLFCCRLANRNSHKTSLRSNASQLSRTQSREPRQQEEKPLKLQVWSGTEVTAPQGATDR

Compound: CN(C)CCCSC(=N)N [dimaprit]
- NK cell mediated cytotoxicity (H2-receptor [1]): capable of augmenting NK cell mediated cytotoxicity
- effect of histamine on granulocyte mediated suppression of antibody dependent cytotoxicity of NK cells (H2-receptor [2]): mimicked

Compound: NCCc1c[nH]cn1 [histamine]
- efficacy on prolonged administration [3]: decreased or lack of efficacy
- survival time [4]: prolong survival time
- half life in the blood [5]: five
- persistence of circulating blood histamine levels ([6]; even after histamine administration was discontinued): remained elevated for sustained periods of time
- circulating blood histamine levels following histamine administration ([6]; histamine 0.4-0.7 mg s.c. twice daily with IL-2 for 21 days, samples at least 8 hours after last injection, beneficial = at least 0.2 μmole/L): rose to beneficial levels

Compound: CNC(=C[N+](=O)[O-])NCCSCc1ccc(CN(C)C)o1 [ranitidine]
- effect of histamine on granulocyte mediated suppression of antibody dependent cytotoxicity of NK cells (H2-receptor [2]): blocked

Compound: IL-2: cytokine synthesized by T cells; human recombinant interleukin-2 (Proleukin, Eurocetus)
- fraction of AML patients with inversion of remission time [7]: < 10%
